Patent publication US20100280056A1, “IDENTIFICATION OF SUBJECTS LIKELY TO BENEFIT FROM STATIN THERAPY” (The Govt. of the U. S. as Represented by the Secretary of …, priority 2007, published 2010)

System: colon cancer cell lines
Experiment: Total cholesterol content of colon cancer cell lines with and without atorvastatin (Cholesterol/Cholesteryl Ester Quantification Kit)
Assay type: cell-based
Conditions: 25 μM atorvastatin, 24 hours, serum-free medium; cell lines with rs12654264 A allele compared to T allele (FIG. 4)
Protocol: Microsatellite stable (MSS) colon cancer cell lines (SW480, SW620, HT29, WiDr, and SW1417) were cultured in RPMI (supplemented with 10% Fetal Bovine Serum, 100 IU/mL of Penicillin, 100 IU/mL of Streptomycin, and 1× Non-Essential Amino Acid) at 37° C. in an atmosphere of 5% CO2. The cells were trypsinized and washed with PBS twice. […] The cholesterol level of each colon cancer line was measured using Cholesterol/Cholesteryl Ester Quantification Kit from Abcam (Cambridge, Mass.). Cells were plated into 6-well plates to reach approximate confluency of 70%. After overnight incubation, the cells were treated with 25 μM atorvastatin diluted in serum-free DMEM/F12 50:50 (supplemented with 100 IU/mL of Penicillin, 100 IU/mL of Streptomycin, and 1× Non-Essential Amino Acid) for 24 hours at 37° C., 5% CO2. After treatment, the cells were trypsinized and counted to 1×10^6 cells. The cells were pelleted, washed with PBS twice, and resuspended in 200 μl of pure chloroform with 1% Triton® X-100. The cell suspension was vortexed for 15 seconds, and centrifuged at maximum speed for 10 minutes. The lower (organic) phase was collected and air dried at 50° C., followed by vacuum drying for 30 minutes to remove the chloroform. The dried lipids were resuspended with 100 μl of the Cholesterol Reaction Buffer provided in the kit, and vortexed for 5 minutes vigorously at room temperature. […]

## CC(C)c1c(C(=O)Nc2ccccc2)c(-c2ccccc2)c(-c2ccc(F)cc2)n1CC[C@@H](O)C[C@@H](O)CC(=O)O [atorvastatin]
  statin-dependent cholesterol reduction: significantly greater statin-dependent cholesterol reduction
